Source: a melting point compilation (Tetko et al.)
Each block holds one molecule with its values, some of them ahead of it.

Details: a range is the spread between reports

Compound: O=C1OC(=O)c2cccc3cccc1c23
melting point: 270 to 271 °C

Compound: CN1C(=O)CCC1=O
melting point: 66 to 71 °C

Compound: O=CO
melting point: 8 to 8.32 °C

Compound: O=C(O)CCCc1ccc(N(CCCl)CCCl)cc1
melting point: 64 to 65 °C

Compound: O=C1CCC1
melting point: -52 to -50.9 °C

Compound: O=S(=O)(Cl)c1cccs1
melting point: 28 to 30 °C

Compound: Nc1ccncc1N
melting point: 216 to 220 °C

Compound: ClCCl
melting point: -97 to -95 °C

Compound: CCCOC=O
melting point: -93 to -92.9 °C

Compound: COC(=O)CC(=O)OC
melting point: -62 to -61.9 °C

Compound: CCCCCCCCCCCCCCCCCCCCCC
melting point: 42 to 45 °C

Compound: C=CC=O
melting point: -87.7 to -87 °C

Compound: COC(=O)CCCCC(=O)OC
melting point: 8 to 10.3 °C

Compound: Oc1cc(Cl)ccc1Oc1ccc(Cl)cc1Cl
melting point: 55.6 to 57 °C

Compound: CCCCC(C)=O
melting point: -57 to -55.5 °C

Compound: COc1ccccc1CC#N
melting point: 66 to 69.8 °C

Compound: O=C1C(Cl)=CC(=NCl)C=C1Cl
melting point: 66 to 67 °C

Compound: CCCC(N)C(=O)O (racemic)
melting point: 303 to 307 °C

Compound: CC1OC(C)OC(C)O1 (stereo not drawn)
melting point: 12 to 12.6 °C

Compound: Cc1cc(O)ccc1Cl
melting point: 66 to 67 °C

Compound: CCNc1nc(NC(C)(C)C)nc(SC)n1
melting point: 104 to 105 °C

Compound: CCCCCCCCCCCCCC(C)=O
melting point: 39 to 39.5 °C

Compound: CCc1ccc2c(c1)C(=O)c1ccccc1C2=O
melting point: 109 to 110 °C

Compound: ClCCOCCCl
melting point: -51.9 to -47 °C

Compound: CCCCCCCCCCCCCCCC(=O)OC
melting point: 30 to 31 °C

Compound: CC12CCC3C(CCC4(C)CC5(CCC34C)OCCO5)C1CCC2=O (stereo not drawn)
melting point: 158 to 159 °C

Compound: c1ccc(-c2ccc(-c3ccccc3)cc2)cc1
melting point: 210 to 214 °C

Compound: c1ccc(-c2cnc(-c3ccc(-c4ncc(-c5ccccc5)o4)cc3)o2)cc1
melting point: 242 to 245 °C

Compound: Brc1cc(Br)cc(Br)c1
melting point: 122 to 124 °C

Compound: O=C(CCC(=O)c1ccccc1)c1ccccc1
melting point: 144 to 146 °C

Compound: Cc1ccc([N+](=O)[O-])cc1N
melting point: 106 to 108 °C

Compound: NC(=O)c1ccc(N)nc1
melting point: 246 to 247 °C

Compound: CCOc1cc(C=O)ccc1O
melting point: 77 to 77.5 °C

Compound: NCCc1c[nH]c2ccccc12
melting point: 114 to 118 °C

Compound: O=c1c(-c2ccccc2)c1-c1ccccc1
melting point: 119 to 120 °C

Compound: Fc1c(F)c(F)c2c(F)c(F)c(F)c(F)c2c1F
melting point: 87 to 87.5 °C

Compound: CC(C)(CC(=O)O)CC(=O)O
melting point: 101 to 104 °C

Compound: OCCOCCO
melting point: -10.4 to -10 °C

Compound: Oc1ccc2ccccc2c1/N=N/c1ccccc1
melting point: 132 to 134 °C

Compound: CNCCO
melting point: -5 to -4.5 °C

Compound: COC(=O)c1ccccc1N
melting point: 24 to 24.5 °C

Compound: CNC(=O)Oc1cccc2c1OC(C)(C)C2
melting point: 151 to 152 °C

Compound: CCCN(CC1CC1)c1c([N+](=O)[O-])cc(C(F)(F)F)cc1[N+](=O)[O-]
melting point: 32 to 32.5 °C

Compound: c1ccc2c(c1)CCC2
melting point: -51.4 to -51 °C

Compound: OCC(CO)(CO)COCC(CO)(CO)CO
melting point: 217 to 221 °C

Compound: ON=C1CCCC1
melting point: 56 to 57.8 °C

Compound: CCCCCCC(C)C
melting point: -80.3 to -80 °C

Compound: CCCCCCCCCCCCCC(=O)CCCCCCCCCCCCC
melting point: 77.5 to 78 °C

Compound: COC(=O)CCl
melting point: -32.1 to -32 °C

Compound: C1=CC2C=CC1C2
melting point: -20 to -19.1 °C

Compound: C=CCCC
melting point: -165 to -162 °C

Compound: Clc1ccccc1Cl
melting point: -18 to -16.7 °C

Compound: CCCC(C)=C(C)C
melting point: -115 °C

Compound: FC(Cl)(Cl)Cl
melting point: -111 to -110 °C

Compound: O=C(Oc1ccc([N+](=O)[O-])cc1)c1ccccc1
melting point: 139 to 143 °C

Results, then the molecule that gave them:

melting point: 99 to 100 °C
Compound: Cc1ccnc(N)c1

melting point: -63 to -62.6 °C
Compound: CCc1ccc(Cl)cc1

melting point: 9 to 12.4 °C
Compound: O=Cc1ccccc1Cl

melting point: 11 to 12.4 °C
Compound: CCOc1cccc(OCC)c1

melting point: 9 to 10 °C
Compound: O=[N+]([O-])c1ccc(F)cc1F

melting point: 135 to 136 °C
Compound: O=Cc1ccc(O)cc1O

melting point: 195 to 196 °C
Compound: COc1cc(C(=O)O)cc(O)c1OC

melting point: 182 to 183 °C
Compound: NC(=O)c1ccc(N)cc1

melting point: 70 to 71 °C
Compound: O=c1ccc2ccccc2o1

melting point: 15 to 20 °C
Compound: COc1ccc(OC)c(C)c1

melting point: 96.5 to 98 °C
Compound: CCC(=O)c1cc(O)ccc1O

melting point: 106 to 107 °C
Compound: Oc1ccc(Cl)c(O)c1

melting point: 99 to 100 °C
Compound: N#Cc1ccc(Cl)c([N+](=O)[O-])c1

melting point: 59 to 64 °C
Compound: Cc1cc(O)ccc1Br

melting point: 202 to 206 °C
Compound: O=C(O)C=Cc1ccccc1C(F)(F)F

melting point: 197 to 200 °C
Compound: O=C1c2ccccc2C(=O)c2c(O)ccc(O)c21

melting point: 70 to 75 °C
Compound: OCc1ccc(Cl)cc1

melting point: 64 to 64.7 °C
Compound: Cc1cc(Br)ccc1O

melting point: 128 to 130 °C
Compound: O=[N+]([O-])c1ccc(C=NO)cc1

melting point: -36 to -35 °C
Compound: Cc1cccc(C)c1Cl

melting point: 103 to 106 °C
Compound: O=C(O)Cc1ccc(Cl)cc1

melting point: 56 to 58 °C
Compound: O=Cc1cccc(I)c1

melting point: -7 to -6 °C
Compound: Cc1cccc(C)n1

melting point: 201 to 203 °C
Compound: Oc1ccnc2ccccc12

melting point: 205 to 206 °C
Compound: O=C(O)c1ccccc1N=Nc1ccc(O)cc1

melting point: 205 to 208 °C
Compound: CC(=O)Nc1ccccc1O

melting point: 19 to 20 °C
Compound: SCc1ccc(Cl)cc1

melting point: 114 to 117 °C
Compound: CC(=O)c1ccccc1C(=O)O
